Laboratory results from ChEMBL document CHEMBL5126532, “Synthetic approaches and structural diversity of triazolylbutanols derived from voriconazole in the antifungal drug development” (Eur J Med Chem, 2022).
≈ marks a conversion by molar mass, not a printed value.

Tests used:
Assay type in all cases: functional
[1] = system: Aspergillus; assay: Antifungal activity against Aspergillus
[2] = system: Cryptococcus neoformans; assay: Antifungal activity against Cryptococcus neoformans
[3] = system: Candida; assay: Antifungal activity against Candida spp.
[4] = system: Candida parapsilosis; assay: Antifungal activity against Candida parapsilosis; conditions: Lodderomyces parapsilosis
[5] = system: Candida albicans; assay: Antifungal activity against Candida albicans
[6] = system: Candida tropicalis; assay: Antifungal activity against Candida tropicalis
[7] = system: Nakaseomyces glabratus; assay: Antifungal activity against Candida glabrata
[8] = system: Pichia kudriavzevii; assay: Antifungal activity against Candida krusei
[9] = system: Candida albicans; assay: Antifungal activity against Candida albicans assessed as inhibition of fungal growth incubated for 20 hrs
[10] = system: Candida albicans; assay: In vivo antifungal activity against Candida albicans infected in CDF1 mouse treated po or iv immediately after infection measured on day 7; conditions: 168 h, time 7 day
[11] = system: Candida albicans; assay: In vivo antifungal activity against Candida albicans infected in CDF1 mouse treated po or iv 2 hrs after infection twice daily for 2 days measured on day 10; conditions: 240 h, time 10 day
[12] = system: Candida albicans; assay: Antifungal activity against Candida albicans TIMM1756 assessed as inhibition of fungal growth incubated for 20 hrs
[13] = system: Candida albicans; assay: Antifungal activity against Candida albicans TIMM1850 assessed as inhibition of fungal growth incubated for 20 hrs
[14] = system: Cryptococcus neoformans; assay: Antifungal activity against Cryptococcus neoformans TIMM1740 assessed as inhibition of fungal growth incubated for 68 hrs
[15] = system: Cryptococcus neoformans; assay: Antifungal activity against Cryptococcus neoformans TIMM1855 assessed as inhibition of fungal growth incubated for 68 hrs
[16] = system: Aspergillus fumigatus; assay: Antifungal activity against Aspergillus fumigatus TIMM1728 assessed as inhibition of fungal growth incubated for 20 hrs
[17] = system: Aspergillus fumigatus; assay: Antifungal activity against Aspergillus fumigatus IFO6344 assessed as inhibition of fungal growth incubated for 20 hrs
[18] = system: Candida albicans; assay: In vivo antifungal activity against Candida albicans infected in CDF1 mouse treated po 4 hrs after injection twice daily for 2 days measured on day 10; conditions: 48 h, time 2 day
[19] = system: Aspergillus fumigatus; assay: In vivo antifungal activity against Aspergillus fumigatus infected in CDF1 mouse treated po 4 hrs after injection twice daily for 2 days measured on day 10; conditions: 48 h, time 2 day
[20] = system: Aspergillus sp.; assay: Antifungal activity against Aspergillus sp
[21] = system: Aspergillus fumigatus; assay: Antifungal activity against Aspergillus fumigatus in 96-well microplate method
[22] = system: Aspergillus fumigatus; assay: Antifungal activity against Aspergillus fumigatus
[23] = system: Candida albicans; assay: Antifungal activity against Candida albicans SANK 51486 by 96-well microplate method
[24] = system: Cryptococcus neoformans; assay: Antifungal activity against Cryptococcus neoformans TIMM 1855 by 96-well microplate method
[25] = system: Aspergillus fumigatus; assay: Antifungal activity against Aspergillus fumigatus SANK 10569 by 96-well microplate method
[26] = system: Aspergillus flavus; assay: Antifungal activity against Aspergillus flavus SANK 18497 by 96-well microplate method
[27] = system: Nannizzia gypsea; assay: Antifungal activity against Microsporum gypseum
[28] = Cryptococcus neoformans, read-out: MIC

C[C@@H](C[C@H]1CO[C@H](/C=C/C=C/c2ccc(C(F)(F)F)cc2)OC1)[C@](O)(Cn1cncn1)c1ccc(F)cc1F
MIC [1]: ≤ 0.5 µg/mL

C[C@@H](N1CCn2nc(-c3ccc(C#N)nc3)nc2C1)[C@](O)(Cn1cncn1)c1ccc(F)cc1F
MIC [2, 28]: 0.0078 µg/mL (≈ 0.0163 µM)
MIC [3]: 0.0078 µg/mL (≈ 0.0163 µM)
MIC [1]: 1 µg/mL (≈ 2.09 µM)

C[C@H](n1nnnc1CCN1CCN(c2cccc(C(F)(F)F)c2)CC1)[C@](O)(Cn1cncn1)c1ccc(F)cc1F
MIC [4]: 0.25 µg/mL (≈ 0.433 µM)
MIC [5]: 0.12 µg/mL (≈ 0.208 µM)
MIC [6]: 0.25 µg/mL (≈ 0.433 µM)
MIC [7]: 0.5 µg/mL (≈ 0.866 µM)
MIC [8]: 0.5 µg/mL (≈ 0.866 µM)

C[C@@H](N1CCN(c2ccc(-n3cnnn3)cc2)C1=O)[C@](O)(Cn1cncn1)c1ccc(F)cc1F
MIC [9]: 0.16 µg/mL (≈ 0.332 µM)
ED50 [10]: 0.77 mg/kg
ED50 [11]: 3.56 mg/kg
MIC [12]: ≤ 1 ng/mL
MIC [13]: ≤ 1 ng/mL
MIC [14]: 0.016 µg/mL (≈ 0.0332 µM)
MIC [15]: 0.016 µg/mL (≈ 0.0332 µM)
MIC [16]: 0.25 µg/mL (≈ 0.519 µM)
MIC [17]: 0.25 µg/mL (≈ 0.519 µM)
ED50 [18]: 0.18 mg/kg
ED50 [19]: 4 mg/kg

C[C@@H](N1Cc2nc(-c3ccc(F)cc3)sc2C1=O)[C@](O)(Cn1cncn1)c1ccc(F)cc1F
MIC [2, 28]: 0.0312 µg/mL (≈ 0.0643 µM)
MIC [3]: 0.0156 µg/mL (≈ 0.0321 µM)
MIC ([20]; Aspergillus sp., read-out: MIC): 4 µg/mL (≈ 8.24 µM)

C[C@@H](N1CCN(c2ccc(-n3cccn3)cc2)C1=O)[C@](O)(Cn1cncn1)c1ccc(F)cc1F
MIC [12]: ≤ 1 ng/mL
MIC [13]: ≤ 1 ng/mL
MIC [14]: 0.016 µg/mL (≈ 0.0334 µM)
MIC [15]: 0.016 µg/mL (≈ 0.0334 µM)
MIC [16]: 0.25 µg/mL (≈ 0.521 µM)
MIC [17]: 0.25 µg/mL (≈ 0.521 µM)
ED50 [18]: 2 mg/kg
ED50 [19]: 4.4 mg/kg

C[C@@H](N1Cc2sc(-c3ccc(C#N)cn3)nc2C1=O)[C@](O)(Cn1cncn1)c1ccc(F)cc1F
MIC80 [21]: 4 µg/mL (≈ 8.11 µM)

CC(C)n1ncn(-c2ccc(N3CCN([C@H](C)[C@](O)(Cn4cncn4)c4ccc(F)cc4F)CC3)cn2)c1=O
MIC [4]: 0.25 µg/mL (≈ 0.463 µM)
MIC [22]: 4 µg/mL (≈ 7.41 µM)
MIC [2, 28]: 0.5 µg/mL (≈ 0.927 µM)
MIC [3]: 0.25 µg/mL (≈ 0.463 µM)

CC(C)Cn1ncn(-c2ccc(N3CCN([C@H](C)[C@](O)(Cn4cncn4)c4ccc(F)cc4F)CC3)nc2)c1=O
MIC [4]: 0.25 µg/mL (≈ 0.452 µM)
MIC [22]: 4 µg/mL (≈ 7.23 µM)
MIC [2, 28]: 0.25 µg/mL (≈ 0.452 µM)
MIC [3]: 0.03 µg/mL (≈ 0.0542 µM)

C[C@@H](N1CC(O)N(c2ccc(-n3cnnn3)cc2)C1=O)[C@](O)(Cn1cncn1)c1ccc(F)cc1F (some centres undefined)
MIC [2, 28]: > 16 µg/mL
MIC [3]: ≥ 4 µg/mL
MIC ([20]; Aspergillus sp., read-out: MIC): > 64 µg/mL

C[C@@H](N1CCN(c2ccc(-n3ccnn3)cc2)C1=O)[C@](O)(Cn1cncn1)c1ccc(F)cc1F
MIC [12]: ≤ 1 ng/mL
MIC [13]: ≤ 1 ng/mL
MIC [14]: 0.016 µg/mL (≈ 0.0333 µM)
MIC [15]: 0.016 µg/mL (≈ 0.0333 µM)
MIC [16]: 0.25 µg/mL (≈ 0.52 µM)
MIC [17]: 0.25 µg/mL (≈ 0.52 µM)
ED50 [18]: 0.18 mg/kg
ED50 [19]: 4 mg/kg

C[C@@H](N1CCN(c2ccc(-n3cnn(Cc4ccc(OC(F)(F)F)cc4)c3=O)cc2)CC1)[C@](O)(Cn1cncn1)c1ccc(F)cc1F
MIC [22]: 32 µg/mL (≈ 47.7 µM)

C[C@@H](N1Cc2sc(Br)nc2C1=O)[C@](O)(Cn1cncn1)c1ccc(F)cc1F
MIC [2, 28]: 0.125 µg/mL (≈ 0.266 µM)
MIC [3]: 0.0625 µg/mL (≈ 0.133 µM)
MIC80 [21]: 4 µg/mL (≈ 8.51 µM)
MIC ([20]; Aspergillus sp., read-out: MIC): 16 µg/mL (≈ 34 µM)

C[C@@H](N1Cc2sc(-c3cncnc3)nc2C1=O)[C@](O)(Cn1cncn1)c1ccc(F)cc1F
MIC80 [21]: 4 µg/mL (≈ 8.52 µM)

C[C@@H](S[C@H]1CO[C@H](/C=C/C=C/c2ccc(C#N)cc2F)OC1)[C@](O)(Cn1cncn1)c1c(F)cccc1F
MIC [23]: ≤ 0.008 µg/mL
MIC [24]: ≤ 0.008 µg/mL
MIC [25]: ≤ 0.008 µg/mL
MIC [26]: ≤ 0.008 µg/mL

C[C@@H](S[C@H]1CO[C@H](/C=C/C=C/c2ccc(OCC(F)(F)C(F)F)cc2)OC1)[C@](O)(Cn1cncn1)c1ccc(F)cc1F
MIC [23]: 0.016 µg/mL (≈ 0.0254 µM)
MIC [24]: 0.031 µg/mL (≈ 0.0492 µM)
MIC [25]: 0.125 µg/mL (≈ 0.199 µM)
MIC [26]: 0.125 µg/mL (≈ 0.199 µM)
MIC [1]: ≤ 0.5 µg/mL

C[C@@H](N1CCN(c2ccc(-n3cncn3)cc2)C1=O)[C@](O)(Cn1cncn1)c1ccc(F)cc1F
MIC [12]: ≤ 1 ng/mL
MIC [13]: ≤ 1 ng/mL
MIC [14]: 0.016 µg/mL (≈ 0.0333 µM)
MIC [15]: 0.016 µg/mL (≈ 0.0333 µM)
MIC [16]: 0.25 µg/mL (≈ 0.52 µM)
MIC [17]: 0.25 µg/mL (≈ 0.52 µM)
ED50 [18]: 0.18 mg/kg
ED50 [19]: 4.4 mg/kg

COc1ccc(-c2nc3c(s2)CN([C@H](C)[C@](O)(Cn2cncn2)c2ccc(F)cc2F)C3=O)cn1
MIC80 [21]: 4 µg/mL (≈ 8.02 µM)

C[C@@H](S[C@H]1CO[C@H](/C=C/C=C/c2ccc(C#N)cc2F)OC1)[C@](O)(Cn1cncn1)c1cccc(F)c1F
MIC [23]: ≤ 0.008 µg/mL
MIC [24]: ≤ 0.008 µg/mL
MIC [25]: ≤ 0.008 µg/mL
MIC [26]: ≤ 0.008 µg/mL

C[C@@H](N1C(=O)N(c2ccc(-n3cnnn3)cc2)CC1O)[C@](O)(Cn1cncn1)c1ccc(F)cc1F (stereo in doubt; 140a)
MIC [2, 28]: 8 µg/mL (≈ 16.1 µM)
MIC [3]: ≥ 0.25 µg/mL
MIC ([20]; Aspergillus sp., read-out: MIC): 32 µg/mL (≈ 64.3 µM)

C[C@@H](N1C(=O)N(c2ccc(-n3cnnn3)cc2)CC1O)[C@](O)(Cn1cncn1)c1ccc(F)cc1F (stereo in doubt; 140b)
MIC [2]: 8 µg/mL (≈ 16.1 µM)
MIC [20]: 32 µg/mL (≈ 64.3 µM)

C[C@@H](S[C@H]1CO[C@H](/C=C/C=C/c2ccc(C#N)cc2F)OC1)[C@](O)(Cn1cncn1)c1ccc(F)cc1F [EMBECONAZOLE]
MIC [23]: ≤ 0.008 µg/mL
MIC [24]: ≤ 0.008 µg/mL
MIC [25]: ≤ 0.008 µg/mL
MIC [26]: ≤ 0.008 µg/mL
MIC [1]: < 0.5 µg/mL

OC(Cn1cncn1)(Cn1cncn1)c1ccc(F)cc1F [FLUCONAZOLE]
MIC [4]: 0.12 µg/mL (≈ 0.392 µM)
MIC [22]: > 64 µg/mL
MIC [5]: 0.12 µg/mL (≈ 0.392 µM)
MIC [6]: 0.12 µg/mL (≈ 0.392 µM)
MIC [7]: 0.12 µg/mL (≈ 0.392 µM)
MIC [8]: 0.12 µg/mL (≈ 0.392 µM)
ED50 [10]: 0.22 mg/kg
ED50 [11]: 179 mg/kg
ED50 [18]: 0.22 mg/kg
MIC [23]: 0.25 µg/mL (≈ 0.816 µM)
MIC [24]: 0.25 µg/mL (≈ 0.816 µM)
MIC [25]: 0.25 µg/mL (≈ 0.816 µM)
MIC [26]: 0.25 µg/mL (≈ 0.816 µM)
MIC [27]: 32 µg/mL (≈ 104 µM)

CCC(C)n1ncn(-c2ccc(N3CCN(c4ccc(OCC5COC(Cn6cncn6)(c6ccc(Cl)cc6Cl)O5)cc4)CC3)cc2)c1=O (centres undefined) [ITRACONAZOLE]
MIC [4]: ≤ 0.25 µg/mL
MIC [5]: ≤ 0.25 µg/mL
MIC [6]: ≤ 0.25 µg/mL
MIC [7]: ≤ 0.25 µg/mL
MIC [8]: ≤ 0.25 µg/mL
ED50 [10]: 5.19 mg/kg
ED50 [11]: 19 mg/kg
MIC [23]: 0.031 µg/mL (≈ 0.0439 µM)
MIC [24]: 0.031 µg/mL (≈ 0.0439 µM)
MIC [25]: 0.031 µg/mL (≈ 0.0439 µM)
MIC [26]: 0.031 µg/mL (≈ 0.0439 µM)
